Reference: patent US9090570B2, “Compounds for inflammation and immune-related uses” (Synta Pharmaceuticals Corp., priority 2005, dated 2015)
Where a name gives a salt, the structure may show the parent alone.

What follows are compounds tested on IL-2 production (assay: Inhibition of IL-2 production in PHA-activated Jurkat cells (ELISA)). Conditions: Homo sapiens, Jurkat, 20 h, PHA 2.5 μg/mL, IL-2 ELISA.
Format: cell-based
Experimental: Jurkat cells were placed in a 96 well plate (0.5 million cells per well in 1% FBS medium) then a test compound of this invention was added at different concentrations. After 10 minutes, the cells were activated with PHA (final concentration 2.5 μg/mL) and incubated for 20 hours at 37° C. under CO2. The final volume was 200 μL. Following incubation, the cells were centrifuged and the supernatants collected and stored at −70° C. prior to assaying for IL-2 production. A commercial ELISA kit (IL-2 Eli-pair, Diaclone Research, Besancon, France) was used to detect production of IL-2, from which dose response curves were obtained. The IC50 value was calculated as the concentration at which 50% of maximum IL-2 production after stimulation was inhibited versus a non-stimulation control.

Work on `O=C(Nc1cnc(-c2cc(C(F)(F)F)ccc2Cl)cn1)c1c(F)cccc1F` [Compound 4, N-[5-(2-Chloro-5-trifluoromethyl-phenyl)-pyrazin-2-yl]-2,6-difluoro-benzamide hydrochloride] yielded an IC50 of 6 nM.

Same assay, conditions: Homo sapiens, PHA 2.5 μg/mL, 20 hours, IL-2 ELISA

Going from `O=C(Nc1cnc(-c2cc(C(F)(F)F)ccc2Cl)cn1)c1c(F)cccc1F` [Compound 1, N-[5-(2-Chloro-5-trifluoromethyl-phenyl)-pyrazin-2-yl]-2,6-difluoro-benzamide] to `O=C(Nc1cnc(-c2cc(C(F)(F)F)ccc2Cl)cn1)c1c(F)cncc1F` [Compound 115, N-[5-(2-Chloro-5-trifluoromethyl-phenyl)-pyrazin-2-yl]-3,5-difluoro-isonicotinamide], the IC50 rises from 2 nM to 4.1 nM (2-fold). The first is the more potent here.

`O=C(Nc1cnc(-c2cc(C(F)(F)F)ccc2Cl)cn1)c1ccncc1F` [Compound 2, N-[5-(2-Chloro-5-trifluoromethyl-phenyl)-pyrazin-2-yl]-3-fluoro-isonicotinamide] and `Cc1ncccc1C(=O)Nc1cnc(-c2cc(C(F)(F)F)ccc2Cl)cn1` [Compound 111, N-[5-(2-Chloro-5-trifluoromethyl-phenyl)-pyrazin-2-yl]-2-methyl-nicotinamide] are within 1.5-fold of each other in IC50: 115 nM for the first, 133 nM for the second.

Compared with `O=C(Nc1ccc(-c2cc(C(F)(F)F)ccc2Cl)nn1)c1c(F)cccc1F` [Compound 60, N-[6-(2-Chloro-5-trifluoromethyl-phenyl)-pyridazin-3-yl]-2,6-difluoro-benzamide], `O=C(Nc1ncc(-c2cc(C(F)(F)F)ccc2Cl)cn1)c1c(F)cccc1F` [Compound 116, N-[5-(2-Chloro-5-trifluoromethyl-phenyl)-pyrimidin-2-yl]-2,6-difluoro-benzamide] is lower in IC50: > 1000 nM for the first, 118 nM for the second. The second is the more potent here.

First: Cc1ccc(-c2ncco2)cc1-c1cnc(NC(=O)c2ccncc2F)cn1 [Compound 61, 3-Fluoro-N-[5-(2-methyl-5-oxazol-2-yl-phenyl)-pyrazin-2-yl]-isonicotinamide]
Second: Cc1cnccc1C(=O)Nc1cnc(-c2cc(-c3ncco3)ccc2C)cn1 [Compound 62, 3-Methyl-N-[5-(2-methyl-5-oxazol-2-yl-phenyl)-pyrazin-2-yl]-isonicotinamide]
The IC50 of the first is 1.6-fold higher: 50.5 nM for the first, 32.2 nM for the second. The second is the more potent here.

First: Cc1ccc(-c2ncco2)cc1-c1cnc(NC(=O)c2c(F)cncc2F)cn1 [Compound 63, 3,5-Difluoro-N-[5-(2-methyl-5-oxazol-2-yl-phenyl)-pyrazin-2-yl]-isonicotinamide]
Second: Cc1ccc(-c2ncco2)cc1-c1cnc(NC(=O)c2snnc2C)cn1 [Compound 64, 4-Methyl-[1,2,3]thiadiazole-5-carboxylic acid [5-(2-methyl-5-oxazol-2-yl-phenyl)-pyrazin-2-yl]-amide]
The IC50 of the first is 3-fold lower: 18.5 nM for the first, 55 nM for the second. The first is the more potent here.

Going from `COC(=O)c1ccc(C)c(-c2cnc(NC(=O)c3ccncc3F)cn2)c1` [Compound 109, 3-{5-[(3-Fluoro-pyridine-4-carbonyl)-amino]-pyrazin-2-yl}-4-methyl-benzoic acid methyl ester] to `COc1ccc(OC)c(-c2cnc(NC(=O)c3ccncc3F)cn2)c1` [Compound 113, N-[5-(2,5-Dimethoxy-phenyl)-pyrazin-2-yl]-3-fluoro-isonicotinamide], the IC50 rises from 49.2 nM to 207 nM (4.2-fold). The first is the more potent here.

First: COc1ccc(OC)c(-c2cnc(NC(=O)c3c(F)cccc3F)cn2)c1 [Compound 110, N-[5-(2,5-Dimethoxy-phenyl)-pyrazin-2-yl]-2,6-difluoro-benzamide]
Second: COc1ccc(OC)c(-c2cnc(NC(=O)c3c(F)cncc3F)cn2)c1 [Compound 118, N-[5-(2,5-Dimethoxy-phenyl)-pyrazin-2-yl]-3,5-difluoro-isonicotinamide]
The IC50 of the first is 2.2-fold lower: 15.7 nM for the first, 34 nM for the second.

Compared with `O=C(Nc1cnc(-c2cc(C(F)(F)F)ccc2Cl)cn1)C1CCCCC1` [Compound 112, Cyclohexanecarboxylic acid [5-(2-chloro-5-trifluoromethyl-phenyl)-pyrazin-2-yl]-amide], `COc1ccc(OC)c(-c2cnc(NC(=O)C3CCCCC3)cn2)c1` [Compound 120, Cyclohexanecarboxylic acid [5-(2,5-dimethoxy-phenyl)-pyrazin-2-yl]-amide] is 16-fold higher in IC50: 22.3 nM for the first, 352 nM for the second.

Compared with `Cc1nnsc1C(=O)Nc1cnc(-c2cc(C(F)(F)F)ccc2Cl)cn1` [Compound 114, 4-Methyl-[1,2,3]thiadiazole-5-carboxylic acid [5-(2-chloro-5-trifluoromethyl-phenyl)-pyrazin-2-yl]-amide], `COc1ccc(OC)c(-c2cnc(NC(=O)c3snnc3C)cn2)c1` [Compound 119, 4-Methyl-[1,2,3]thiadiazole-5-carboxylic acid [5-(2,5-dimethoxy-phenyl)-pyrazin-2-yl]-amide] is 4.9-fold higher in IC50: 61.6 nM for the first, 302 nM for the second.

Compared with `COc1ccc(OC)c(-c2cnc(NC(=O)c3ccncc3C)cn2)c1` [Compound 117, N-[5-(2,5-Dimethoxy-phenyl)-pyrazin-2-yl]-3-methyl-isonicotinamide], `Cc1ccc(-c2ncco2)cc1-c1cnc(NC(=O)C2CCCCC2)cn1` [Compound 121, Cyclohexanecarboxylic acid [5-(2-methyl-5-oxazol-2-yl-phenyl)-pyrazin-2-yl]-amide] is 3.8-fold lower in IC50: 145 nM for the first, 38.5 nM for the second. The second is the more potent here.

In the case of `O=C(Nc1cnc(-c2cc(C(F)(F)F)ccc2Cl)nc1)c1c(F)cccc1F` [Compound 122, N-[2-(2-Chloro-5-trifluoromethyl-phenyl)-pyrimidin-5-yl]-2,6-difluoro-benzamide], the IC50 is reported as 654 nM.
